# “And” between values parts separate entries of the source, which are not always exact repeats. Equal values may be shown once.
# How the values were obtained:
# [1] = tested on: NF-κB; assay: NF-κB activity in NIH3T3-KBF-Luc cells stimulated with TNFα (luciferase); format: cell-based; conditions: +30 ng/ml TNFα
# Method: NIH3T3-KBF-Luc cells were stably transfected with the KBF-Luc plasmid (Sancho (2003) Mol Pharmacol 63:429-438), which contains three copies of NF-κB binding site (from major histocompatibility complex promoter), fused to a minimal simian virus 40 promoter driving the luciferase gene. Cells (1×10^4 for NIH3T3-KBF-Luc) were seeded the day before the assay on 96-well plate. Then the cells were treated with the test substances for 15 min and then stimulated with 30 ng/ml of TNFα. After 6 h, the cells were washed twice with PBS and lysed in 50 μl lysis buffer containing 25 mM Tris-phosphate (pH 7.8), 8 mM MgCl2, 1 mM DTT, 1% Triton X-100, and 7% glycerol during 15 min at RT in a horizontal shaker. Luciferase activity was measured using a GloMax 96 microplate luminometer (Promega) following the instructions of the luciferase assay kit (Promega, Madison, Wis., USA). […] The experiments for each concentration of the test items were done in triplicate wells.
# [2] = tested on: hydrogen peroxide (DHR) in NHEK cells; assay: Protection against UV-induced H2O2 stress in NHEK (DHR probe, flow cytometry); format: cell-based, human; conditions: 180 mJ/cm^2 UVB (2839 mJ/cm^2 UVA), 100 μM
# Method: Pre-incubated NHEK were incubated with the test compound for 24 h. Then the specific fluorescence probe for the measurement of hydrogen peroxide (DHR) or lipid peroxides (C11-fluor) was added and incubated for 45 min. Irradiation occurred with in H2O2 determination UVB at 180 mJ/cm^2 (+UVA at 2839 mJ/cm^2) or UVB at 240 mJ/cm^2 (+UVA at 3538 mJ/cm^2) in lipid peroxide, respectively, using a SOL500 Sun Simulator lamp. After irradiation the cells were post-incubated for 30 min before flow-cytometry analysis.
# [3] = tested on: STAT3; assay: STAT3 activity in HeLa-STAT3-luc cells stimulated with IFN-γ (luciferase); format: cell-based; conditions: +IFNγ 25 U/ml
# Method: HeLa-STAT3-luc cells were stably transfected with the plasmid 4×M67 pTATA TK-Luc. Cells (20×10^3 cells/ml) were seeded 96-well plate the day before the assay. Then the cells were treated with the test substances for […] and then stimulated with IFN-γ 25 IU/ml. After 6 h, the cells were washed twice with PBS and lysed in […] lysis buffer containing 25 mM Tris-phosphate (pH 7.8), 8 mM MgCl2, 1 mM DTT, 1% Triton X-100, and 7% glycerol during […] at RT in a horizontal shaker. Luciferase activity was measured using GloMax 96 microplate luminometer (Promega) following the instructions of the luciferase assay kit (Promega, Madison, Wis., USA). […] The experiments for each concentration of the test items were done in triplicate wells.
# [4] = tested on: IL-8; assay: Anti-inflammatory potential: secreted IL-8 in stimulated NHEK (ELISA); format: cell-based, human; conditions: 100 μM; for Cytokine [pg/mL] IL-8: single values
# Method: NHEK were pre-incubated for 24 h with the test compounds. The medium was replaced with the NHEK culture medium containing the inflammatory inducers (PMA or Poly I:C) and incubated for another 24 hours. Positive and negative controls ran in parallel. At the endpoint the culture supernatants were quantified of secreted IL-8, PGE2 and TNF-α, by means of ELISA.
smiles,measurement,setting,value
"C[C@@H]1O[C@@H](Oc2cc(O)cc3c2C(=O)CC(c2ccc(O)cc2)O3)[C@H](O)[C@H](O)[C@H]1O (mixture of isomers) [NR1, Naringenin-5-O-α-L-rhamnoside]",% Activation (NF-κB; TNFα = 100%),[1]; 10 μM,114.0%
same,RLU 1,[1]; 10 μM,134540 RLU
same,RLU 2,[1]; 10 μM,126580 RLU
same,RLU 3,[1]; 10 μM,130240 RLU
same,RLU MEAN,[1]; 10 μM,130453 RLU
same,RLU specific,[1]; 10 μM,93190 RLU
same,% Activation (NF-κB; TNFα = 100%),[1]; 25 μM,136.5%
same,RLU 1,[1]; 25 μM,151080 RLU
same,RLU 2,[1]; 25 μM,151840 RLU
same,RLU 3,[1]; 25 μM,143870 RLU
same,RLU MEAN,[1]; 25 μM,148930 RLU
same,RLU specific,[1]; 25 μM,111667 RLU
same,H2O2 % irradiated control,[2],136%
same,H2O2 (AU) Mean,[2],2516.5 AU
same,H2O2 Protection %,[2],−44%
same,H2O2 (AU) (DHR GMFI),[2]; single values,2531 AU and 2502 AU
same,% Activation (STAT3; IFNγ = 100%),[3]; 25 μM,58.47%
same,RLU 1,[3]; 25 μM,10925 RLU
same,RLU 2,[3]; 25 μM,8301 RLU
same,RLU 3,[3]; 25 μM,8752 RLU
same,RLU MEAN,[3]; 25 μM,9326 RLU
same,RLU specific,[3]; 25 μM,7319 RLU
same,% Activation (STAT3; IFNγ = 100%),[3]; 50 μM,69.97%
same,RLU 1,[3]; 50 μM,18272 RLU
same,RLU 2,[3]; 50 μM,6426 RLU
same,RLU 3,[3]; 50 μM,7599 RLU
same,RLU MEAN,[3]; 50 μM,10766 RLU
same,RLU specific,[3]; 50 μM,8758 RLU
same,Cytokine [pg/mL] IL-8 Mean,[4]; PMA stimulation,2564 pg/mL
same,IL-8 % stim. control,[4]; PMA stimulation,88%
same,Cytokine [pg/mL] IL-8,[4]; PMA stimulation,2572 pg/mL and 2555 pg/mL
same,Cytokine [pg/mL] IL-8 Mean,[4]; poly(I:C) stimulation,3154 pg/mL
same,IL-8 % stim. control,[4]; poly(I:C) stimulation,86%
same,Cytokine [pg/mL] IL-8,[4]; poly(I:C) stimulation,3055 pg/mL and 3253 pg/mL
